# Test results taken from patent US12090204B2, “Photodynamic therapy compositions and methods of use thereof” (Pinnacle Biologics, Inc., priority 2020, dated 2024).
# Columns and labels:
# [1] = test system: Y. intermedia (−); experiment: porfimer sodium aPDT, planktonic culture; assay type: cell-based, Yersinia intermedia; conditions: 630 nm, 200 J/cm2, porfimer sodium 125 μg/mL
# Procedure: (§1) Bacteria were routinely cultured using tryptic soy broth or agar at 37° C. in a 5% CO2 incubator. Bacteria were isolated and suspended with 0.9% NaCl to an Optical Density (OD) of 0.1 taken at 630 nm, to generate the inoculum used for either planktonic or biofilm assays.
# Experiments using planktonic cultures were carried out using M. catarrhalis, as a standard for further comparisons and to determine the effective drug concentration, porfimer sodium incubation time and light dose parameters which would provide an effective cell kill at the level of 5-7 logs. Once determined the experiments were repeated for all other bacterial strains examined.
# The colony forming units (CFU) per mL of the starting inoculum for every experiment was determined by dilution plating. […]
# (§2) Bacteria were exposed to 630 nm laser light via a fiber optic with a lens affixed to the distal end to provide a uniform diverging light field. […] Power output of the laser was measured using a UDT/Gamma Scientific 371 optical power meter and an integrating sphere. […]
# (§3) Biofilms were formed on glass coupons in culture dishes containing a bacterial inoculum for 48 hours under conditions specific to the strain. […] Power output of the laser was measured using a UDT/Gamma Scientific 371 optical power meter and an integrating sphere. […]
# [2] = in vitro human skin permeation, flow through diffusion cell; assay type: in vitro ADME; conditions: 24 hours post application
# Procedure: A study was completed to show the ability of the formulation to deliver the drug into human skin in an in vitro setting, while retaining the API within the appropriate skin layers.
# In this experiment, TEWL for each diffusion cell would was measured and recorded before test article applications. A range of not more than 25 g/m2/h will be acceptable for this study. An automated in-line flow through diffusion cell system (PermeGear Collector FC 33, Version 3.1) was used to assess drug in the skin permeation experiment. Test articles were uniformly dispensed onto the skin tissue surface using a positive displacement pipette, set to deliver 7.8 μL. The study was performed under dark environment and closed to ambient conditions. […] The swabs and the tape strips were analyzed upon request. […] The separated samples were placed in respective pre-weighed labelled vials and weight of tissues were recorded.
# Epidermal and dermal samples were processed and homogenized while maintaining a dark environment using the following protocol: 500 μL of homogenizing mixture, Water: Acetonitrile, 1:1 (v/v), was added to the labelled tubes containing the skin samples. […] The following samples were analyzed for drug content: Receptor solution samples at different time-points; skin samples (epidermis and dermis for each cell at the final time point), tape strips and cotton swabs analyzed for mass balance determination. […]
# [3] = test system: MRSA (+); experiment: porfimer sodium aPDT, 48 hour biofilm culture; assay type: cell-based, methicillin-resistant Staphylococcus aureus; conditions: 630 nm, kill at 100 J/cm2 (light dose 75-100 J/cm2), porfimer sodium 250 μg/mL
# Procedure: as §1
# The colony forming units (CFU) per mL of the starting inoculum for every experiment was determined by dilution plating. Control samples were exposed to laser at 630 nm in the absence of porfimer sodium, porfimer sodium in the absence of laser exposure, or in saline alone in the absence of porfimer sodium and 630 nm laser light. All experimental samples were dilution plated to enumerate viable CFU's. Three independent replicates were performed for each reaction condition per strain per assay. […]
# as §2, §3
substance,measurement,setting,value
porfimer sodium,Rate of kill,[1],7Log
same,skin layer where porfimer sodium permeation was found,[2],predominantly found in the epidermal layers of the skin
same,Rate of kill,[3],7Log
